Ten compounds from ChEMBL document CHEMBL5390321, “Transaminases Provide Key Chiral Building Blocks for the Synthesis of Selective M1/M4 Agonists” (ACS Med Chem Lett, 2023) can be followed below.

Holding throughout (type): functional, cell-based
Experiment [1] deals with Muscarinic acetylcholine receptor M3 (Homo sapiens, UniProt P20309). In words: Activation of human cloned muscarinic M3 receptor expressed in CHO-K1 cells by Calcium flux assay relative to control. (Calcium assays in cells follow changes in intracellular calcium, usually with a dye or a luminescent sensor.)
The target of experiment [2] is T1, Muscarinic acetylcholine receptor M5 (Homo sapiens, UniProt P08912).
T1 sequence (P08912 whole entry): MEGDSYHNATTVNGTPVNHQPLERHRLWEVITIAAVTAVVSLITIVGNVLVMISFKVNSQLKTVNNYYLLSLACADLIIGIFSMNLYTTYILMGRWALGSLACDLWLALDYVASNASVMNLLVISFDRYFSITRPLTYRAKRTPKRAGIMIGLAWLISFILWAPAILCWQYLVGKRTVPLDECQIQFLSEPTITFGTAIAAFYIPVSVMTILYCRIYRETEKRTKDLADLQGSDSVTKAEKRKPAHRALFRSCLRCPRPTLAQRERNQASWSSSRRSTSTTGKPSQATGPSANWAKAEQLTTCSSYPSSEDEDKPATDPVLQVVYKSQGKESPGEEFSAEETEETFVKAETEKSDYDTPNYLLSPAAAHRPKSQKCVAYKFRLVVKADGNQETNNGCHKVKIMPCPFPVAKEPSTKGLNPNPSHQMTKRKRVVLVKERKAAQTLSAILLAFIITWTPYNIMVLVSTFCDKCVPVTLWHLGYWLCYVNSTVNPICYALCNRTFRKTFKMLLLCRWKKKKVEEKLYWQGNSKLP
In words: Activation of human cloned muscarinic M5 receptor expressed in CHO-K1 cells by Calcium flux assay relative to control.

The target in experiment [3] is T2, Muscarinic acetylcholine receptor M4 (Homo sapiens, UniProt P08173).
T2 sequence (P08173 whole entry): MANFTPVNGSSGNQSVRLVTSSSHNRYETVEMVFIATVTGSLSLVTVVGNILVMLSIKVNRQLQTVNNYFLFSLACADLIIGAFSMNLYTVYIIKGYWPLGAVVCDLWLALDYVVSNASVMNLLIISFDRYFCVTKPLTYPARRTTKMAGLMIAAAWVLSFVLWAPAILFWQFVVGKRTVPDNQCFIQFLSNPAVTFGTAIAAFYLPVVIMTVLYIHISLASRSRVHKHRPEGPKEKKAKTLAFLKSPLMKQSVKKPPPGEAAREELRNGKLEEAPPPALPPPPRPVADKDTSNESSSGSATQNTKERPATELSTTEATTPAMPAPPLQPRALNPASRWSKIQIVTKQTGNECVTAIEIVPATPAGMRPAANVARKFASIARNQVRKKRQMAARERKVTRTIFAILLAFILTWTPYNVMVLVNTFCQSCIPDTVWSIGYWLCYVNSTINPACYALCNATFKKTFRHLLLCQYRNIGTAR
Kind of experiment: Activation of human cloned muscarinic M4 receptor expressed in CHO-K1 cells by Calcium flux assay relative to control.

Experiment [4] has as its target T3, Muscarinic acetylcholine receptor M2 (Homo sapiens, UniProt P08172).
T3 sequence (P08172 whole entry): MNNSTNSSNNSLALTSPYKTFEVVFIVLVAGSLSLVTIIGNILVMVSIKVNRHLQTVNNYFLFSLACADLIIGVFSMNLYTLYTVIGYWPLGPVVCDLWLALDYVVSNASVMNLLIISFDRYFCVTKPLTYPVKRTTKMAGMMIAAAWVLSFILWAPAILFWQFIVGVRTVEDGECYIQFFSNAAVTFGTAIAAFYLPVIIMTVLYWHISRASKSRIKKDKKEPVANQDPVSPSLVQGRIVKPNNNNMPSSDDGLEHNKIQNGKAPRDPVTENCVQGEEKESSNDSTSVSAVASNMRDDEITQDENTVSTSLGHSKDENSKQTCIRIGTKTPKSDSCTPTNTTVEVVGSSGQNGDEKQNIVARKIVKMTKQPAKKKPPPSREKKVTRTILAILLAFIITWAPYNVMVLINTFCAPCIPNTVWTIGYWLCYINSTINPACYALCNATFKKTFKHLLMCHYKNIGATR
In words: Activation of human cloned muscarinic M2 receptor expressed in CHO-K1 cells by Calcium flux assay.

pEC50: −log10 of the molar value.

Muscarinic acetylcholine receptor M3, sequence (P20309 whole entry): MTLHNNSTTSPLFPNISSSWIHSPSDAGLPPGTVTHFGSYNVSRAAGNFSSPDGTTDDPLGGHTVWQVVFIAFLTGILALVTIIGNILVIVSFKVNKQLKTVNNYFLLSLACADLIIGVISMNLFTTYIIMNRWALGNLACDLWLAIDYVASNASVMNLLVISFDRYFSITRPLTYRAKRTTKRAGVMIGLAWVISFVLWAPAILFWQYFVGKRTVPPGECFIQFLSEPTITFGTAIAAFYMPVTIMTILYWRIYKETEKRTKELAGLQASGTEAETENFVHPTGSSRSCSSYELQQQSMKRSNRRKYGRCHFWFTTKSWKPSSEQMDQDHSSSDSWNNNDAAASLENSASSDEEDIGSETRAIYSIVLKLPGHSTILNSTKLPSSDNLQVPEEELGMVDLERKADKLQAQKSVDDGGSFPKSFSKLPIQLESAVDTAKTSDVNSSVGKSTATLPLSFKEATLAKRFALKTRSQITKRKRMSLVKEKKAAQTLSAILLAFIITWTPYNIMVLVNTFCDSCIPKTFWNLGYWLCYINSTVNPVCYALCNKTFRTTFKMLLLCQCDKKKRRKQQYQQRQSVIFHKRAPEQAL

A word on the pEC50: it is the EC50 on a negative log10 scale, so that one unit is a factor of ten. As to `COc1ccccc1C1CCN([C@@H]2COC3(C2)CN(C(=O)C2COC2)C3)CC1`, the pEC50 in experiment [1] and in experiment [2] was below 4.60 throughout.

Regarding `COc1ccc(F)cc1C1CCN([C@@H]2CCC3(C2)CN(C(=O)C2COC2)C3)CC1`, the results for the pEC50 in experiment [1], in experiment [2] and in experiment [3] were below 4.60, 6.85 and 8.77, respectively.

Take `COc1cc(F)ccc1C1CCN([C@@H]2COC3(C2)CN(C(=O)C2COC2)C3)CC1`: the pEC50 in experiment [1] and in experiment [2] was below 4.60 in each case.

`CCOc1ccccc1C1CCN([C@@H]2CCC3(C2)CN(C(=O)C2COC2)C3)CC1`: the pEC50 in experiment [1] was below 4.60; in experiment [2], below 4.60; in experiment [3], 8.19; in experiment [4], 6.68.

Take `COc1ccc(F)cc1C1CCN([C@@H]2COC3(C2)CN(C(=O)C2COC2)C3)CC1`: the pEC50 in experiment [1] and in experiment [2] was below 4.60 each time.

On to `CCOc1ccccc1C1CCN([C@@H]2CCC3(C2)CN(C(C)=O)C3)CC1`, for which the pEC50 in experiment [1] is below 4.60.

In the case of `COc1cc(F)ccc1C1CCN([C@@H]2CCC3(C2)CN(C(=O)C2COC2)C3)CC1`, the pEC50 is below 4.60 in experiment [1], below 4.60 in experiment [2] and 8.03 in experiment [3].

Take `CCOc1ccccc1C1CCN([C@@H]2CCC3(C2)CN(C(=O)CC)C3)CC1`: the pEC50 in experiment [1] and in experiment [2] was below 4.60 each time.

`COc1ccccc1C1CCN(C2CCC3(C2)CN(C(=O)C2COC2)C3)CC1` (single isomer, unassigned): the negative-log EC50 (pEC50) in experiment [1] was below 4.60.

Take `CCCCCCOc1nsnc1C1=CCCN(C)C1` [XANOMELINE]: the pEC50 in experiment [1] was 6.96.
